# Laboratory results as given in US9232795B2, “Herbicidal compositions comprising 4-amino-3-chloro-6-(4-chloro-2-fluoro-3-methoxyphenyl) pyridine-2-carboxylic acid or a derivative thereof and flurtamone” (Dow AgroSciences LLC, priority 2012, dated 2016).
# What was measured:
# Assay type in all cases: in vivo
# [1] = system: Amaranthus retroflexus L.; test: greenhouse trial, foliar applied compositions, AMARE (redroot pigweed)
# Source text: (§1) More specifically, the following equation is used to calculate the expected activity of mixtures containing two herbicidal active ingredients: Expected=A+B−(A×B/100) A=observed efficacy of a first active ingredient at the same concentration as used in the mixture; B=observed efficacy of the second active ingredient (or product, which may contain a combination of active ingredients) at the same concentration as used in the mixture. For mixtures containing three herbicidal active ingredients, the following equation can be used to calculate the expected activity: Expected=100−[(100−A)(100−B)(100−C)/10,000] A=observed efficacy of a first active ingredient at the same concentration as used in the mixture; B=observed efficacy of a second active ingredient B at the same concentration as used in the mixture; C=observed efficacy of a third active ingredient C at the same concentration as used in the mixture.
# (§2) Results in Tables 1-12 are greenhouse trial results for foliar applied compositions.
# (§3) g/ha=grams acid equivalent per hectare for Cmpd 1 and grams active ingredient per hectare for flurtamone, flufenacet, and diflufenican Obs=observed value Exp=expected value as calculated by the equations set forth above. Cmpd 1=methyl 4-amino-3-chloro-6-(4-chloro-2-fluoro-3-methoxyphenyl)-pyridine-2-carboxylate
# [2] = system: Triticum aestivum (spring); test: greenhouse trial, foliar applied compositions, TRZAS (spring wheat)
# Source text: as §1, §2, §3
# [3] = system: Stellaria media (L.) Vill.; test: greenhouse trial, foliar applied compositions, STEME (common chickweed)
# Source text: as §1, §2, §3
# Chenpodium album L. = test: greenhouse trial, foliar applied compositions, CHEAL (common lambsquarters)
# Source text: as §1, §2, §3
# [4] = system: Cirsium arvense (L.) Scop.; test: greenhouse trial, foliar applied compositions, CIRAR (Canada thistle)
# Source text: as §1, §2, §3
# Euphorbia heterohylla L. = test: greenhouse trial, foliar applied compositions, EPHHL (wild poinsettia)
# Source text: as §1, §2, §3
# Cyperus esculentus L. = test: greenhouse trial, foliar applied compositions, CYPES (yellow nutsedge)
# Source text: as §1, §2, §3
# Viola tricolor L. = test: greenhouse trial, foliar applied compositions, VIOTR (wild violet)
# Source text: as §1, §2, §3
# [5] = system: Abutilon theophrasti Medik.; test: greenhouse trial, foliar applied compositions, ABUTH (velvetleaf)
# Source text: as §1, §2, §3
# Ipomoea hederacea = test: greenhouse trial, foliar applied compositions, IPOHE (ivyleaf morningglory)
# Source text: as §1, §2, §3
# Setaria faberi Herrm. = test: greenhouse trial, foliar applied compositions, SETFA (giant foxtail)
# Source text: as §1, §2, §3
# [6] = foliar applied, Cmpd 1 5.00 g/ha
smiles,measurement,setting,value
"CNC1=C(c2cccc(C(F)(F)F)c2)C(=O)C(c2ccccc2)O1 (racemic) [Flurtamone, (±)-5-(methylamino)-2-phenyl-4-[3-(trifluoromethyl)phenyl]-3(2H)-furanone]",AMARE Obs,[1]; Flurtamone 62.5 g/ha,40
same,AMARE Obs,[1]; Flurtamone 125 g/ha,65
same,TRZAS Obs,[2]; Flurtamone 62.5 g/ha,0
same,TRZAS Obs,[2]; Flurtamone 125 g/ha,0
same,STEME Obs,[3]; Flurtamone 62.5 g/ha,20
same,STEME Obs,[3]; Flurtamone 125 g/ha,30
same,CHEAL Obs,Chenpodium album L.; Flurtamone 62.5 g/ha,25
same,CHEAL Obs,Chenpodium album L.; Flurtamone 125 g/ha,40
same,CIRAR Obs,[4]; Flurtamone 62.5 g/ha,88
same,CIRAR Obs,[4]; Flurtamone 125 g/ha,95
same,EPHHL Obs,Euphorbia heterohylla L.; Flurtamone 62.5 g/ha,25
same,EPHHL Obs,Euphorbia heterohylla L.; Flurtamone 125 g/ha,40
same,CYPES Obs,Cyperus esculentus L.; Flurtamone 62.5 g/ha,5
same,CYPES Obs,Cyperus esculentus L.; Flurtamone 125 g/ha,8
same,VIOTR Obs,Viola tricolor L.; Flurtamone 62.5 g/ha,25
same,VIOTR Obs,Viola tricolor L.; Flurtamone 125 g/ha,30
same,ABUTH Obs,[5]; Flurtamone 62.5 g/ha,40
same,ABUTH Obs,[5]; Flurtamone 125 g/ha,63
same,IPOHE Obs,Ipomoea hederacea; Flurtamone 62.5 g/ha,25
same,IPOHE Obs,Ipomoea hederacea; Flurtamone 125 g/ha,33
same,SETFA Obs,Setaria faberi Herrm.; Flurtamone 62.5 g/ha,0
same,SETFA Obs,Setaria faberi Herrm.; Flurtamone 125 g/ha,10
"COC(=O)c1nc(-c2ccc(Cl)c(OC)c2F)cc(N)c1Cl [Cmpd 1, methyl 4-amino-3-chloro-6-(4-chloro-2-fluoro-3-methoxyphenyl)-pyridine-2-carboxylate]",AMARE Obs,[1]; Cmpd 1 1.25 g/ha,30
same,AMARE Obs,[1]; Cmpd 1 2.50 g/ha,93
same,AMARE Obs,[1]; Cmpd 1 5.00 g/ha,78
same,AMARE Obs,[1]; [6],78
same,TRZAS Obs,[2]; Cmpd 1 1.25 g/ha,0
same,TRZAS Obs,[2]; Cmpd 1 2.50 g/ha,0
same,TRZAS Obs,[2]; Cmpd 1 5.00 g/ha,0
same,STEME Obs,[3]; Cmpd 1 1.25 g/ha,20
same,STEME Obs,[3]; Cmpd 1 2.50 g/ha,58
same,STEME Obs,[3]; Cmpd 1 5.00 g/ha,65
same,STEME Obs,[3]; [6],65
same,CHEAL Obs,Chenpodium album L.; Cmpd 1 1.25 g/ha,60
same,CHEAL Obs,Chenpodium album L.; Cmpd 1 2.50 g/ha,83
same,CHEAL Obs,Chenpodium album L.; Cmpd 1 5.00 g/ha,85
same,CHEAL Obs,Chenpodium album L.; [6],85
same,CIRAR Obs,[4]; Cmpd 1 1.25 g/ha,20
same,CIRAR Obs,[4]; Cmpd 1 2.50 g/ha,55
same,CIRAR Obs,[4]; Cmpd 1 5.00 g/ha,75
same,CIRAR Obs,[4]; [6],75
same,EPHHL Obs,Euphorbia heterohylla L.; Cmpd 1 1.25 g/ha,60
same,EPHHL Obs,Euphorbia heterohylla L.; Cmpd 1 2.50 g/ha,89
same,EPHHL Obs,Euphorbia heterohylla L.; Cmpd 1 5.00 g/ha,92
same,EPHHL Obs,Euphorbia heterohylla L.; [6],92
same,CYPES Obs,Cyperus esculentus L.; Cmpd 1 1.25 g/ha,58
same,CYPES Obs,Cyperus esculentus L.; Cmpd 1 2.50 g/ha,85
same,CYPES Obs,Cyperus esculentus L.; Cmpd 1 5.00 g/ha,81
same,CYPES Obs,Cyperus esculentus L.; [6],81
same,VIOTR Obs,Viola tricolor L.; Cmpd 1 1.25 g/ha,5
same,VIOTR Obs,Viola tricolor L.; Cmpd 1 2.50 g/ha,15
same,VIOTR Obs,Viola tricolor L.; Cmpd 1 5.00 g/ha,23
same,VIOTR Obs,Viola tricolor L.; [6],23
same,ABUTH Obs,[5]; Cmpd 1 1.25 g/ha,78
same,ABUTH Obs,[5]; Cmpd 1 2.50 g/ha,91
same,ABUTH Obs,[5]; Cmpd 1 5.00 g/ha,98
same,IPOHE Obs,Ipomoea hederacea; Cmpd 1 1.25 g/ha,15
same,IPOHE Obs,Ipomoea hederacea; Cmpd 1 2.50 g/ha,15
same,IPOHE Obs,Ipomoea hederacea; Cmpd 1 5.00 g/ha,35
same,SETFA Obs,Setaria faberi Herrm.; Cmpd 1 1.25 g/ha,0
same,SETFA Obs,Setaria faberi Herrm.; Cmpd 1 2.50 g/ha,5
same,SETFA Obs,Setaria faberi Herrm.; Cmpd 1 5.00 g/ha,0
"O=C(Nc1ccc(F)cc1F)c1cccnc1Oc1cccc(C(F)(F)F)c1 [Diflufenican, N-(2,4-difluorophenyl)-2-[3-(trifluromethyl)phenoxy]-3-pyridinecarboxamide]",AMARE Obs,[1]; Diflufenican 25 g/ha,25
same,AMARE Obs,[1]; Diflufenican 50 g/ha,50
same,TRZAS Obs,[2]; Diflufenican 25 g/ha,0
same,TRZAS Obs,[2]; Diflufenican 50 g/ha,0
same,STEME Obs,[3]; Diflufenican 25 g/ha,10
same,STEME Obs,[3]; Diflufenican 50 g/ha,15
same,CHEAL Obs,Chenpodium album L.; Diflufenican 25 g/ha,25
same,CHEAL Obs,Chenpodium album L.; Diflufenican 50 g/ha,25
same,CIRAR Obs,[4]; Diflufenican 25 g/ha,28
same,CIRAR Obs,[4]; Diflufenican 50 g/ha,25
same,EPHHL Obs,Euphorbia heterohylla L.; Diflufenican 25 g/ha,43
same,EPHHL Obs,Euphorbia heterohylla L.; Diflufenican 50 g/ha,50
same,CYPES Obs,Cyperus esculentus L.; Diflufenican 25 g/ha,0
same,CYPES Obs,Cyperus esculentus L.; Diflufenican 50 g/ha,0
same,VIOTR Obs,Viola tricolor L.; Diflufenican 25 g/ha,10
same,VIOTR Obs,Viola tricolor L.; Diflufenican 50 g/ha,15
same,ABUTH Obs,[5]; Diflufenican 25 g/ha,15
same,ABUTH Obs,[5]; Diflufenican 50 g/ha,15
same,IPOHE Obs,Ipomoea hederacea; Diflufenican 25 g/ha,10
same,IPOHE Obs,Ipomoea hederacea; Diflufenican 50 g/ha,13
same,SETFA Obs,Setaria faberi Herrm.; Diflufenican 25 g/ha,8
same,SETFA Obs,Setaria faberi Herrm.; Diflufenican 50 g/ha,5
"CC(C)N(C(=O)COc1nnc(C(F)(F)F)s1)c1ccc(F)cc1 [Flufenacet, N-(4-fluorophenyl)-N-(1-methylethyl)-2-[[5-(trifluoromethyl)-1,3,4-thiadiazol-2-yl]oxy]acetamide]",AMARE Obs,[1]; Flufenacet 30 g/ha,0
same,AMARE Obs,[1]; Flufenacet 60 g/ha,0
same,TRZAS Obs,[2]; Flufenacet 30 g/ha,0
same,TRZAS Obs,[2]; Flufenacet 60 g/ha,0
same,STEME Obs,[3]; Flufenacet 30 g/ha,0
same,STEME Obs,[3]; Flufenacet 60 g/ha,0
same,CHEAL Obs,Chenpodium album L.; Flufenacet 30 g/ha,0
same,CHEAL Obs,Chenpodium album L.; Flufenacet 60 g/ha,0
same,CIRAR Obs,[4]; Flufenacet 30 g/ha,0
same,CIRAR Obs,[4]; Flufenacet 60 g/ha,0
same,EPHHL Obs,Euphorbia heterohylla L.; Flufenacet 30 g/ha,0
same,EPHHL Obs,Euphorbia heterohylla L.; Flufenacet 60 g/ha,0
same,CYPES Obs,Cyperus esculentus L.; Flufenacet 30 g/ha,0
same,CYPES Obs,Cyperus esculentus L.; Flufenacet 60 g/ha,0
same,VIOTR Obs,Viola tricolor L.; Flufenacet 30 g/ha,0
same,VIOTR Obs,Viola tricolor L.; Flufenacet 60 g/ha,0
same,ABUTH Obs,[5]; Flufenacet 30 g/ha,0
same,ABUTH Obs,[5]; Flufenacet 60 g/ha,0
same,IPOHE Obs,Ipomoea hederacea; Flufenacet 30 g/ha,0
same,IPOHE Obs,Ipomoea hederacea; Flufenacet 60 g/ha,0
same,SETFA Obs,Setaria faberi Herrm.; Flufenacet 30 g/ha,0
same,SETFA Obs,Setaria faberi Herrm.; Flufenacet 60 g/ha,0
